Source: US9695155B2, “Herbicidal substituted pyrimidinyloxy benzene compounds” (E. I. DU PONT DE NEMOURS AND COMPANY, priority 2013, dated 2017)

Assays:
[1] = system: spring wheat; test: Test D postemergence; assay type: in vivo, Triticum aestivum; conditions: Triticum aestivum, post-emergence
Excerpt: (§1) Seeds of plant species selected from bluegrass (annual bluegrass, Poa annua), blackgrass (Alopecurus myosuroides), canarygrass (littleseed canarygrass, Phalaris minor), chickweed (common chickweed, Stellaria media), galium (catchweed bedstraw, Galium aparine), bromegrass, downy (downy bromegrass, Bromus tectorum), field poppy (Papaver rhoeas), field violet (Viola arvensis), green foxtail (Setaria viridis), deadnettle (henbit deadnettle, Lamium amplexicaule), Italian ryegrass (Lolium multiflorum), kochia (Kochia scoparia), lambsquarters (Chenopodium album), oilseed rape (Brassica napus), pigweed (Amaranthus retroflexus), chamomile (scentless chamomile, Matricaria inodora), Russian thistle (Salsola kali), speedwell (bird's-eye speedwell, Veronica persica), spring barley (Hordeum vulgare), spring wheat (Triticum aestivum), wild buckwheat (Polygonum convolvulus), wild mustard (Sinapis arvensis), wild oat (Avena fatua), wild radish (Raphanus raphanistrum), windgrass (Apera spica-venti), winter barley (Hordeum vulgare), and winter wheat (Triticum aestivum) were planted into a silt loam soil and treated preemergence with test chemicals formulated in a non-phytotoxic solvent mixture which included a surfactant.
(§2) At the same time, these species were planted in pots containing Redi-Earth® planting medium (Scotts Company, 14111 Scottslawn Road, Marysville, Ohio 43041) comprising spaghnum peat moss, vermiculite, wetting agent and starter nutrients and treated with postemergence applications of the test chemicals formulated in the same manner. Plants ranged in height from 2 to 18 cm (1- to 4-leaf stage). Treated plants and controls were maintained in a controlled growth environment for 7 to 21 days after which time all species were compared to controls and visually evaluated. Plant response ratings, summarized in Table D, are based on a scale of 0 to 100 where 0 is no effect and 100 is complete control. A dash (-) response means no test result.

[2] = system: winter wheat; test: Test D postemergence; assay type: in vivo, Triticum aestivum; conditions: Triticum aestivum, post-emergence
Excerpt: as §1, §2

[3] = system: canarygrass; test: Test D preemergence; assay type: in vivo, Phalaris minor; conditions: Phalaris minor, pre-emergence
Excerpt: as §1, §2

[4] = system: lambsquarters; test: Test D preemergence; assay type: in vivo, Chenopodium album; conditions: Chenopodium album, pre-emergence
Excerpt: as §1, §2

[5] = system: wild mustard; test: Test D preemergence; assay type: in vivo, Sinapis arvensis; conditions: Brassica, pre-emergence
Excerpt: as §1, §2

[6] = system: galium; test: Test D preemergence; assay type: in vivo, Galium aparine; conditions: Galium, pre-emergence
Excerpt: as §1, §2

[7] = system: bromegrass, downy; test: Test D preemergence; assay type: in vivo, Bromus tectorum; conditions: Bromus tectorum, pre-emergence
Excerpt: as §1, §2

[8] = system: windgrass; test: Test D preemergence; assay type: in vivo, Apera spica-venti; conditions: Apera spica-venti, pre-emergence
In short: (§3)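 Plant response is a visual score from 0 (no effect) to 100 (complete control) relative to controls. Plants were kept in a controlled growth environment for 7 to 21 days after spraying. Preemergence treatments went onto silt loam soil; postemergence ones onto 1- to 4-leaf seedlings.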

[9] = system: kochia; test: Test D postemergence; assay type: in vivo, Kochia scoparia; conditions: Bassia scoparia, post-emergence
In short: as §3

[10] = system: speedwell; test: Test D postemergence; assay type: in vivo, Veronica persica; conditions: Veronica persica, post-emergence
In short: as §3

## Fc1cccc(Oc2ncc(Cl)cn2)c1-n1cc(Br)cn1 [Compound 178, 2-[2-(4-bromo-1H-pyrazol-1-yl)-3-fluorophenoxy]-5-chloropyrimidine]
[1]; 16 g ai/ha, scale 0-100, read-out: Plant response rating, Wheat, Spring
  plant injury at 16 g/ha: 0%
[1]; 31 g ai/ha, scale 0 to 100 (0 no effect, 100 complete control), read-out: Plant response rating, Wheat, Spring
  plant injury at 31 g/ha: 0%
[1]; 62 g ai/ha, scale 0 to 100 (0 no effect, 100 complete control), read-out: Plant response rating, Wheat, Spring
  plant injury at 62 g/ha: 0%
[1]; 125 g ai/ha, scale 0 to 100 (0 no effect, 100 complete control), read-out: Plant response rating, Wheat, Spring
  plant injury at 125 g/ha: 5%
[2]; 16 g ai/ha, scale 0-100, read-out: Plant response rating, Wheat, Winter
  plant injury at 16 g/ha: 0%
[2]; 31 g ai/ha, scale 0 to 100 (0 no effect, 100 complete control), read-out: Plant response rating, Wheat, Winter
  plant injury at 31 g/ha: 0%
[2]; 62 g ai/ha, scale 0 to 100 (0 no effect, 100 complete control), read-out: Plant response rating, Wheat, Winter
  plant injury at 62 g/ha: 0%
[2]; 125 g ai/ha, scale 0 to 100 (0 no effect, 100 complete control), read-out: Plant response rating, Wheat, Winter
  plant injury at 125 g/ha: 10%
[3]; 16 g ai/ha, scale 0 (no effect) to 100 (complete control), read-out: Plant response rating, Canarygrass
  pest or weed control at 16 g/ha: 10%
[3]; 31 g ai/ha, scale 0-100, read-out: Plant response rating, Canarygrass
  pest or weed control at 31 g/ha: 60%
[3]; 62 g ai/ha, scale 0-100, read-out: Plant response rating, Canarygrass
  pest or weed control at 62 g/ha: 60%
[3]; 125 g ai/ha, scale 0-100, read-out: Plant response rating, Canarygrass
  pest or weed control at 125 g/ha: 95%
[4]; 16 g ai/ha, scale 0 (no effect) to 100 (complete control), read-out: Plant response rating, Lambsquarters
  pest or weed control at 16 g/ha: 20%
[4]; 31 g ai/ha, scale 0-100, read-out: Plant response rating, Lambsquarters
  pest or weed control at 31 g/ha: 70%
[4]; 62 g ai/ha, scale 0-100, read-out: Plant response rating, Lambsquarters
  pest or weed control at 62 g/ha: 80%
[4]; 125 g ai/ha, scale 0-100, read-out: Plant response rating, Lambsquarters
  pest or weed control at 125 g/ha: 85%
[5]; 16 g ai/ha, scale 0 (no effect) to 100 (complete control), read-out: Plant response rating, Mustard, Wild
  pest or weed control at 16 g/ha: 25%
[5]; 31 g ai/ha, scale 0-100, read-out: Plant response rating, Mustard, Wild
  pest or weed control at 31 g/ha: 35%
[5]; 62 g ai/ha, scale 0-100, read-out: Plant response rating, Mustard, Wild
  pest or weed control at 62 g/ha: 95%
[5]; 125 g ai/ha, scale 0-100, read-out: Plant response rating, Mustard, Wild
  pest or weed control at 125 g/ha: 95%
[6]; 16 g ai/ha, scale 0 (no effect) to 100 (complete control), read-out: Plant response rating, Galium
  pest or weed control at 16 g/ha: 10%
[6]; 31 g ai/ha, scale 0-100, read-out: Plant response rating, Galium
  pest or weed control at 31 g/ha: 30%
[6]; 62 g ai/ha, scale 0-100, read-out: Plant response rating, Galium
  pest or weed control at 62 g/ha: 45%
[6]; 125 g ai/ha, scale 0-100, read-out: Plant response rating, Galium
  pest or weed control at 125 g/ha: 60%
[7]; 16 g ai/ha, scale 0 (no effect) to 100 (complete control), read-out: Plant response rating, Bromegrass, Downy
  pest or weed control at 16 g/ha: 0%
[7]; 31 g ai/ha, scale 0-100, read-out: Plant response rating, Bromegrass, Downy
  pest or weed control at 31 g/ha: 0%
[7]; 62 g ai/ha, scale 0-100, read-out: Plant response rating, Bromegrass, Downy
  pest or weed control at 62 g/ha: 0%
[7]; 125 g ai/ha, scale 0-100, read-out: Plant response rating, Bromegrass, Downy
  pest or weed control at 125 g/ha: 10%
[8]; 16 g ai/ha, scale 0 (no effect) to 100 (complete control), read-out: Plant response rating, Windgrass
  pest or weed control at 16 g/ha: 75%
[8]; 31 g ai/ha, scale 0 (no effect) to 100 (complete control), read-out: Plant response rating, Windgrass
  pest or weed control at 31 g/ha: 75%
[8]; 62 g ai/ha, scale 0-100, read-out: Plant response rating, Windgrass
  pest or weed control at 62 g/ha: 70%
[8]; 125 g ai/ha, scale 0-100, read-out: Plant response rating, Windgrass
  pest or weed control at 125 g/ha: 95%
[9]; 16 g ai/ha, scale 0-100, read-out: Plant response rating, Kochia
  pest or weed control at 16 g/ha: 60%
[9]; 31 g ai/ha, scale 0 to 100 (0 no effect, 100 complete control), read-out: Plant response rating, Kochia
  pest or weed control at 31 g/ha: 70%
[9]; 62 g ai/ha, scale 0 to 100 (0 no effect, 100 complete control), read-out: Plant response rating, Kochia
  pest or weed control at 62 g/ha: 75%
[9]; 125 g ai/ha, scale 0 to 100 (0 no effect, 100 complete control), read-out: Plant response rating, Kochia
  pest or weed control at 125 g/ha: 85%
[10]; 16 g ai/ha, scale 0-100, read-out: Plant response rating, Speedwell
  pest or weed control at 16 g/ha: 70%
[10]; 31 g ai/ha, scale 0 to 100 (0 no effect, 100 complete control), read-out: Plant response rating, Speedwell
  pest or weed control at 31 g/ha: 80%
[10]; 62 g ai/ha, scale 0 to 100 (0 no effect, 100 complete control), read-out: Plant response rating, Speedwell
  pest or weed control at 62 g/ha: 100%
[10]; 125 g ai/ha, scale 0 to 100 (0 no effect, 100 complete control), read-out: Plant response rating, Speedwell
  pest or weed control at 125 g/ha: 100%
